Experimental findings from paper PMC3632207 (Journal of medicinal chemistry, 2013) are described below.

The experiment addresses rat nNOS (Rattus norvegicus, UniProt P29476). Description: NOS inhibition, hemoglobin capture assay. In kind it is biochemical. Conditions: data not shown.

For the compound `Cc1cc(N)nc(CCc2cc(CCCN)cc(CCc3cc(C)cc(N)n3)c2)c1` [Compound 4, 6,6'-((5-(3-Aminopropyl)-1,3-phenylene)bis(ethane-2,1-diyl))bis(4-methylpyridin-2-amine)], the “Competition with H4B” value is given as “not to be competitive with H4B”.
